# Laboratory results published in US6602906B1 (priority 2002, dated 2003).
# Like-named read-outs stand apart in the source and are kept apart here.
# Assays:
# [1] = Storage stability of the 5.0 wt % topical solution; format: physicochemical
# Method: For topical use, a homogeneous solution in accordance with the present invention containing 5.0 wt % 5,6-O-isopropylidene L-ascorbic acid was prepared by mixing the ingredients shown in TABLE 1. The ingredients were added in the order given and in the given amounts. The solution was prepared in a glass container with continuous stirring. After the addition of the zinc sulfate, and again after the addition of the glycerin, the solution was heated to approximately 60° C. The heating increased the solubility of the 2-phenoxyethanol and of the 5,6-O-isopropylidene L-ascorbic acid. The solution was then filtered through a fine plastic mesh, yielding a clear, colorless to very pale yellow liquid. The 5,6-O-isopropylidene L-ascorbic acid in this solution will retain its potency for approximately six months if the solution is stored at room temperature in a bottle that is impervious to ultraviolet light. In darkness at 10° C., 5,6-O-isopropylidene L-ascorbic acid in solution will remain stable and potent for approximately 18 months.
# [2] = system: inflamed skin; details: inflamed skin treated with acetone; cited from earlier work
# [3] = neutral pH; cited from earlier work
# [4] = system: skin of humans; details: topical application; cited from earlier work
# [5] = system: human skin; details: applied topically prior to UVB; cited from earlier work
# [6] = system: pig skin; details: applied topically prior to UVB; cited from earlier work
# [7] = in the human; cited from earlier work
# [8] = system: mouse skin; details: topical application, (hairless) mice; cited from earlier work
# [9] = system: mice; details: topical; cited from earlier work
# [10] = pKa of the molecule
# [11] = 20 wt %, pH 2.0; cited from earlier work
# [12] = cited from earlier work
structure (smiles),measurement,setting,value
"CC1(C)OC[C@@H]([C@H]2OC(=O)C(O)=C2O)O1 [5,6-O-isopropylidene L-ascorbic acid]",time the compound in solution retains its potency,"[1]; 5.0 wt % solution of TABLE 1, room temperature, bottle impervious to ultraviolet light",approximately six
same,time the compound in solution remains stable and potent,"[1]; solution, in darkness at 10° C.",approximately 18 months
CC(C)=O [acetone],erythema and edema,[2],diminished
same,presence of mononuclear cells (indicator of inflammation),[2],significant decrease
O=C1O[C@H]([C@@H](O)CO)C(O)=C1O [ascorbic acid],stability in aqueous solutions,[3],very unstable
same,photoaging changes in the skin,[4],decreased
same,erythema and sunburn after UVB irradiation,[5],erythema and sunburn were prevented
same,erythema and sunburn after UVB irradiation,[6],erythema and sunburn were prevented
same,half-life,[7],about 20 days
same,photoaging changes / protection against photoaging in mouse skin,[8],decreased
same,protection against UV-induced immunosuppression and tolerance to contact antigen,[9],protect against UV-induced immunosuppression
same,skin irritation,[11],highly irritating to the skin
"CCCCCCCCCCCCCCCC(=O)OC[C@H](O)[C@H]1OC(=O)C(O)=C1O [ascorbyl-6-palmitate, Ascorbyl-6-palmitate]",skin levels of ascorbic acid,[12]; topical serum containing 10 wt %,no significant increase
same,photoaging changes / protection against photoaging in mouse skin,[8],failed to demonstrate protection against photoaging
O=C1O[C@H]([C@@H](O)CO)C([O-])=C1OP(=O)([O-])[O-].O=C1O[C@H]([C@@H](O)CO)C([O-])=C1OP(=O)([O-])[O-].[Mg+2].[Mg+2].[Mg+2] [magnesium ascorbyl 2-phosphate],skin levels of ascorbic acid,[12]; topical serum containing 13 wt %,failed to increase skin levels of ascorbic acid
